Assay results from ChEMBL document CHEMBL4422663, “Suppression of Tumor Growth and Metastases by Targeted Intervention in Urokinase Activity with Cyclic Peptides” (J Med Chem, 2019).

Legend:
[1] = tested on: Lewis lung carcinoma cell line; assay: Antitumor activity against mouse LLC allografted in C57Bl6/N mouse assessed as inhibition olf tumor growth at 200 mg/kg/day, ip; assay type: functional; conditions: read-out: TGI
[2] = Drug level in blood of mouse LLC allografted in mouse at 100 mg/kg, ip; assay type: ADME, organism-based; conditions: in vivo, read-out: Drug uptake
[3] = tested on: Lewis lung carcinoma cell line; assay: Antimetastatic activity against mouse LLC allografted in mouse assessed as reduction in tumor nodule numbers at 100 mg/kg, ip; assay type: functional; parameters: scale not given: the % may be the effect or the level left
[4] = Antitumor activity against rat BN472 cells implanted in Norwegian BN rat model of orthotopical breast cancer assessed as inhibition of tumor growth at 1 mg/kg/day, sc; assay type: functional; conditions: read-out: TGI
Prothrombin = Prothrombin (Homo sapiens, UniProt P00734); assay: Inhibition of thrombin (unknown origin)
Coagulation factor X = Coagulation factor X (Homo sapiens, UniProt P00742); assay: Inhibition of factor 10a (unknown origin)
Plasminogen = Plasminogen (Homo sapiens, UniProt P00747); assay: Inhibition of plasmin (unknown origin)
[5] = molecular target: Urokinase-type plasminogen activator (Homo sapiens, UniProt P00749); assay: Inhibition of uPA (unknown origin)
[6] = molecular target: Tissue-type plasminogen activator (Homo sapiens, UniProt P00750); assay: Inhibition of tPA (unknown origin)
Tissue-type plasminogen activator, sequence (P00750 whole entry): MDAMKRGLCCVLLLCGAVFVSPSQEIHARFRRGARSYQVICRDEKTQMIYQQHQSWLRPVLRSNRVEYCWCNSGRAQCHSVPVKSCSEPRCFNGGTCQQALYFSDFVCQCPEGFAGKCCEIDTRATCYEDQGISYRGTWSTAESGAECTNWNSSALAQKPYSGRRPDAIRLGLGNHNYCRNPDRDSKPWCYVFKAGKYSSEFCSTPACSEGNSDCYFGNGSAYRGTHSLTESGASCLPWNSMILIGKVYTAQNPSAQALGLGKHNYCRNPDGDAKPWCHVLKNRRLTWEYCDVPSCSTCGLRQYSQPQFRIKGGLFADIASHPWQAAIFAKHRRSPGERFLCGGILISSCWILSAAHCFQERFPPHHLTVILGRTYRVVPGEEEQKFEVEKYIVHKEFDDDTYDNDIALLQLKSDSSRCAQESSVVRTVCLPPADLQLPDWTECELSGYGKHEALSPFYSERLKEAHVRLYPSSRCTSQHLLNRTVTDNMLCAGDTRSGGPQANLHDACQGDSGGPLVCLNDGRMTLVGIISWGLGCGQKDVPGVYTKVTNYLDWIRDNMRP

Plasminogen, sequence (P00747 97-580 limits assumed): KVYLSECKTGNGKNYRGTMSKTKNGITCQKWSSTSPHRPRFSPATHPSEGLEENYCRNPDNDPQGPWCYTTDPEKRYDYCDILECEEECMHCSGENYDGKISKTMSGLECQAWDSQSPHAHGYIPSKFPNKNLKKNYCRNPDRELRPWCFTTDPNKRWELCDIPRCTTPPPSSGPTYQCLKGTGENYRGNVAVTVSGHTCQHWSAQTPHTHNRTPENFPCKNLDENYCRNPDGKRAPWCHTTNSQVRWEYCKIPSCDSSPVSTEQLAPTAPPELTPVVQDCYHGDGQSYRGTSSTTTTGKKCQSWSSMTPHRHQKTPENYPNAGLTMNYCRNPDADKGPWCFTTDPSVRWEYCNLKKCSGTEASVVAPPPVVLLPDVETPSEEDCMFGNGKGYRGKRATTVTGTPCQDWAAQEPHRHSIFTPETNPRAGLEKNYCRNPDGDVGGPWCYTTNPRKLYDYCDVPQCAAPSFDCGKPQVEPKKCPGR
Plasminogen, sequence (P00747 581-810 limits assumed): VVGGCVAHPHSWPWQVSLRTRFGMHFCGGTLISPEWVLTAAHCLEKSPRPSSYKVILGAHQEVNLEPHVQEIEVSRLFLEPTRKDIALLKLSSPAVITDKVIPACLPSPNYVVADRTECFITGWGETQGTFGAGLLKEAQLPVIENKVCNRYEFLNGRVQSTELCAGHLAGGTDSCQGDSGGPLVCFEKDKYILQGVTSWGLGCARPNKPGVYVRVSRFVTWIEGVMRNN
Coagulation factor X, sequence (P00742 41-179 limits assumed): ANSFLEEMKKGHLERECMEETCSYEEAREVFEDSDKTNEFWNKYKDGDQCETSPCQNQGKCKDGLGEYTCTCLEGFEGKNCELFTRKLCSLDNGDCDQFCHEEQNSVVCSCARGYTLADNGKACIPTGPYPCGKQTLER
Coagulation factor X, sequence (P00742 235-488 limits assumed): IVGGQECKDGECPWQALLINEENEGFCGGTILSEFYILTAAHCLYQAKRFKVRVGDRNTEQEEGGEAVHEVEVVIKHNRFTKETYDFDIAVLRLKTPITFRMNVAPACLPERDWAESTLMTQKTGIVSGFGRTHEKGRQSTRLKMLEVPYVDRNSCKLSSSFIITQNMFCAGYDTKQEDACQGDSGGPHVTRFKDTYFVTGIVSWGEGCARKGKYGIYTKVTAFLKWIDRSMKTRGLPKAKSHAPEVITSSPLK

Compound	inhibition in vivo at 200 mg/kg/day [1] [%]	concentration [2] [µM]	Activity [3] [%]	inhibition in vivo at 1 mg/kg/day [4] [%]	Ki (Prothrombin) [nM]	Ki (Coagulation factor X) [nM]	Ki (Plasminogen) [nM]	Ki [5] [nM]	Ki [6] [nM]
N=C(N)c1ccc(CNC(=O)[C@H](CO)NC(=O)[C@@H](CO)NS(=O)(=O)Cc2ccccc2)cc1	43	1010	41.5						
CCOC(=O)N1CCN(C(=O)[C@H](Cc2cccc(C(=N)N)c2)NS(=O)(=O)c2c(C(C)C)cc(C(C)C)cc2C(C)C)CC1				53	500	980	1460	650	2510
